The values that follow come from paper PMC6459026 (European journal of medicinal chemistry, 2019).

One experiment concerns the target HIV-1 RT pol (Human immunodeficiency virus type 1 group M subtype B, UniProt P04585). Put plainly: RT polymerase assay. The class given is biochemical.
Another experiment concerns the target HIV-1 IN (INST activity) (Human immunodeficiency virus type 1 group M subtype B, UniProt P04585). Nature of the experiment: biochemical.

Each structure is given as a SMILES string.

The IC50 is the concentration that gives 50% inhibition. High values mean weaker potency in that assay, low ones greater potency in that assay. Compound `O=C(c1ccc(-c2ccccc2)cc1)c1cc(=O)n(O)c(=O)[nH]1` [Compound 8f, 6-([1,1’-Biphenyl]-4-carbonyl)-3-hydroxypyrimidine-2,4(1H,3H)-dione] had an IC50 on HIV-1 RT pol above 10 µM.

Turning to `O=C(c1ccc(-c2ccc(C(F)(F)F)cc2)cc1)c1cc(=O)n(O)c(=O)[nH]1` [Compound 8b, 3-Hydroxy-6-(4’-(trifluoromethyl)-[1,1’-biphenyl]-4-carbonyl)pyrimidine-2,4(1H,3H)-dione], the IC50 is above 10 µM against HIV-1 RT pol and above 100 µM on HIV-1 IN (INST activity).

Take `COC(=O)c1ccc(C(=O)c2cc(=O)n(O)c(=O)[nH]2)cc1` [Compound 7d, Methyl 4-(1-hydroxy-2,6-dioxo-1,2,3,6-tetrahydropyrimidine-4-carbonyl)benzoate]: the IC50 against HIV-1 RT pol is above 10 µM.

On HIV-1 IN (INST activity), `COc1ccc(-c2ccc(C(=O)c3cc(=O)n(O)c(=O)[nH]3)cc2)cc1` [Compound 8h, 3-Hydroxy-6-(4’-methoxy-[1,1’-biphenyl]-4-carbonyl)pyrimidine-2,4(1H,3H)-dione] showed an IC50 above 100 µM.

`O=C(c1ccc(-c2ccc(F)cc2)cc1)c1cc(=O)n(O)c(=O)[nH]1` [Compound 8c, 6-(4’-Fluoro-[1,1’-biphenyl]-4-carbonyl)-3-hydroxypyrimidine-2,4(1H,3H)-dione] came in with an IC50 at HIV-1 RT pol above 10 µM.

`O=C(c1ccc(F)cc1)c1cc(=O)n(O)c(=O)[nH]1` [Compound 7c, 6-(4-Fluorobenzoyl)-3-hydroxypyrimidine-2,4(1H,3H)-dione] gave an IC50 against HIV-1 RT pol above 10 µM.

In turn, `O=C(c1ccc(C(F)(F)F)cc1)c1cc(=O)n(O)c(=O)[nH]1` [Compound 7b, 3-Hydroxy-6-(4-(trifluoromethyl)benzoyl)pyrimidine-2,4(1H,3H)-dione] displayed an IC50 at HIV-1 RT pol above 10 µM.

On to `O=C(c1ccc(-c2ccc(Cl)c(F)c2)cc1)c1cc(=O)n(O)c(=O)[nH]1` [Compound 8l, 6-(4’-Chloro-3’-fluoro-[1,1’-biphenyl]-4-carbonyl)-3-hydroxypyrimidine-2,4(1H,3H)-dione], for which the IC50 against HIV-1 RT pol was above 10 µM.

Turning to `CCOCn1c(C(C#N)c2cc(C)cc(C)c2)cc(=O)n(O)c1=O` (centres unmarked) [Compound 17e, 2-(3,5-Dimethylphenyl)-2-(3-(ethoxymethyl)-1-hydroxy-2,6-dioxo-1,2,3,6-tetrahydropyrimidin-4-yl)acetonitrile], the figures for the IC50 on HIV-1 RT pol and at HIV-1 IN (INST activity) were above 10 µM and above 100 µM, respectively.

Take `COC(=O)c1ccc(-c2ccc(C(=O)c3cc(=O)n(O)c(=O)[nH]3)cc2)cc1` [Compound 8d, Methyl 4’-(1-hydroxy-2,6-dioxo-1,2,3,6-tetrahydropyrimidine-4-carbonyl)-[1,1’-biphenyl]-4-carboxylate]: the IC50 against HIV-1 RT pol is above 10 µM.

Compound `Cc1ccc(C(=O)c2cc(=O)n(O)c(=O)[nH]2)cc1` [Compound 7a, 3-Hydroxy-6-(4-methylbenzoyl)pyrimidine-2,4(1H,3H)-dione] showed an IC50 against HIV-1 RT pol above 10 µM.

Turning to `CCOCn1c(C(=O)c2ccc(-c3ccccc3)cc2)cc(=O)n(O)c1=O` [Compound 16f, 6-([1,1’-Biphenyl]-4-carbonyl)-1-(ethoxymethyl)-3-hydroxypyrimidine-2,4(1H,3H)-dione], the IC50 on HIV-1 RT pol is above 10 µM; at HIV-1 IN (INST activity), above 100 µM.

Turning to `Cc1cc(C)cc(C(=O)c2cc(=O)n(O)c(=O)[nH]2)c1` [Compound 7e, 6-(3,5-Dimethylbenzoyl)-3-hydroxypyrimidine-2,4(1H,3H)-dione], the IC50 against HIV-1 RT pol was above 10 µM.

With `CCOCn1c(C(C#N)c2ccc(-c3ccccc3)cc2)cc(=O)n(O)c1=O` (centres unmarked) [Compound 18f, 2-([1,1’-Biphenyl]-4-yl)-2-(3-(ethoxymethyl)-1-hydroxy-2,6-dioxo-1,2,3,6-tetrahydropyrimidin-4-yl)acetonitrile], the IC50 on HIV-1 RT pol was above 10 µM; against HIV-1 IN (INST activity), above 100 µM.

For the compound `CCOCn1c(C(=O)c2cccc(-c3ccccc3)c2)cc(=O)n(O)c1=O` [Compound 16g, 6-([1,1’-Biphenyl]-3-carbonyl)-1-(ethoxymethyl)-3-hydroxypyrimidine-2,4(1H,3H)-dione], the half-maximal inhibitory concentration (IC50) against HIV-1 RT pol was above 10 µM; at HIV-1 IN (INST activity), above 100 µM.

Consider `Cc1ccc(-c2ccc(C(=O)c3cc(=O)n(O)c(=O)[nH]3)cc2)cc1` [Compound 8a, 3-Hydroxy-6-(4’-methyl-[1,1’-biphenyl]-4-carbonyl)pyrimidine-2,4(1H,3H)-dione], for which the IC50 at HIV-1 RT pol was above 10 µM.

Take `Cc1cc(C)cc(-c2ccc(C(=O)c3cc(=O)n(O)c(=O)[nH]3)cc2)c1` [Compound 8e, 6-(3’,5’-Dimethyl-[1,1’-biphenyl]-4-carbonyl)-3-hydroxypyrimidine-2,4(1H,3H)-dione]: the IC50 against HIV-1 RT pol was above 10 µM.

`O=C(c1cccc(-c2ccccc2)c1)c1cc(=O)n(O)c(=O)[nH]1` [Compound 8g, 6-([1,1’-Biphenyl]-3-carbonyl)-3-hydroxypyrimidine-2,4(1H,3H)-dione] showed an IC50 against HIV-1 RT pol above 10 µM.
